In ChEMBL document CHEMBL4732050, “1,2,4-Oxadiazole topsentin analogs as staphylococcal biofilm inhibitors targeting the bacterial transpeptidase sortase A” (Eur J Med Chem, 2021):

Legend:
Staphylococcus aureus [1] = assay: Antibacterial activity against Staphylococcus aureus ATCC 25923 after 24 hrs by microdilution method; type: functional
Staphylococcus aureus [2] = assay: Antibacterial activity against Staphylococcus aureus ATCC 6538 after 24 hrs by microdilution method; type: functional
Pseudomonas aeruginosa [3] = assay: Antibacterial activity against Pseudomonas aeruginosa ATCC 15442 after 24 hrs by microdilution method; type: functional
Escherichia coli [4] = assay: Antibacterial activity against Escherichia coli ATCC 25922 after 24 hrs by microdilution method; type: functional
Staphylococcus aureus [5] = assay: Antibiofilm activity against Staphylococcus aureus ATCC 25923 after 24 hrs by crystal violet staining based assay; type: functional
Staphylococcus aureus [6] = assay: Antibiofilm activity against Staphylococcus aureus ATCC 6538 at 100 ug/ml after 24 hrs by crystal violet staining based assay; type: functional
Pseudomonas aeruginosa [7] = assay: Antibiofilm activity against Pseudomonas aeruginosa ATCC 15442 after 24 hrs by crystal violet staining based assay; type: functional
Escherichia coli [8] = assay: Antibiofilm activity against Escherichia coli ATCC 25922 at 100 ug/ml after 24 hrs by crystal violet staining based assay; type: functional
[9] = Inhibition of Staphylococcus aureus ATCC 25923 sortase A by FRET assay
HS27 = assay: Cytotoxicity against human Hs27 cells assessed as cell viability at 0.1 to 1 uM after 72 hrs by SRB assay; type: cell-based; settings: hs27, 72 h, dose 0.1-1 µM
Escherichia coli [10] = assay: Antibiofilm activity against Escherichia coli ATCC 25922 after 24 hrs by crystal violet staining based assay; type: functional
Staphylococcus aureus [11] = assay: Antibiofilm activity against Staphylococcus aureus ATCC 25923 at 100 ug/ml after 24 hrs by crystal violet staining based assay; type: functional
Staphylococcus aureus [12] = assay: Antibiofilm activity against Staphylococcus aureus ATCC 6538 after 24 hrs by crystal violet staining based assay; type: functional
Pseudomonas aeruginosa [13] = assay: Antibiofilm activity against Pseudomonas aeruginosa ATCC 15442 at 100 ug/ml after 24 hrs by crystal violet staining based assay; type: functional

With Cn1cc(C(=O)c2nc(-c3cn(C)c4ccc(F)cc34)no2)c2cc(F)ccc21 the MIC (Staphylococcus aureus [1]) was > 100 µg/mL, the MIC (Staphylococcus aureus [2]) was > 100 µg/mL and the MIC (Pseudomonas aeruginosa [3]) was > 100 µg/mL. The MIC (Escherichia coli [4]) was > 100 µg/mL, the MBIC50 (Staphylococcus aureus [5]) was 0.7 µM and the inhibition at 100 µg/mL (Staphylococcus aureus [6]) was < 15%. For the same compound, the MBIC50 (Pseudomonas aeruginosa [7]) was 49.7 µM, the inhibition at 100 µg/mL (Escherichia coli [8]) was < 15% and the IC50 [9] was 10.4 µM. For the same compound, the Activity (HS27) was “Non-Toxic”.
With Cn1cc(C(=O)c2nc(-c3cn(C)c4ccc(Cl)cc34)no2)c2cc(Br)ccc21 the MIC (Staphylococcus aureus [1]) was > 100 µg/mL, the MIC (Staphylococcus aureus [2]) was > 100 µg/mL and the MIC (Pseudomonas aeruginosa [3]) was > 100 µg/mL. For the same compound, the MIC (Escherichia coli [4]) was > 100 µg/mL, the MBIC50 (Staphylococcus aureus [5]) was 27.7 µM and the inhibition at 100 µg/mL (Staphylococcus aureus [6]) was < 15%. For the same compound, the MBIC50 (Pseudomonas aeruginosa [7]) was 53.9 µM and the inhibition at 100 µg/mL (Escherichia coli [8]) was < 15%.
For COc1ccc2c(c1)c(-c1noc(C(=O)c3cn(C)c4ccc(Br)cc34)n1)cn2C, the MIC (Staphylococcus aureus [1]) was > 100 µg/mL, the MIC (Staphylococcus aureus [2]) was > 100 µg/mL and the MIC (Pseudomonas aeruginosa [3]) was > 100 µg/mL. For the same compound, the MIC (Escherichia coli [4]) was > 100 µg/mL, the MBIC50 (Staphylococcus aureus [5]) was 19.1 µM and the inhibition at 100 µg/mL (Staphylococcus aureus [6]) was < 15%. For the same compound, the MBIC50 (Pseudomonas aeruginosa [7]) was 28.1 µM and the inhibition at 100 µg/mL (Escherichia coli [8]) was < 15%.
For Cn1cc(C(=O)c2nc(-c3cn(C)c4ccccc34)no2)c2cc(Br)ccc21, the MIC (Staphylococcus aureus [1]) was > 100 µg/mL, the MIC (Staphylococcus aureus [2]) was > 100 µg/mL and the MIC (Pseudomonas aeruginosa [3]) was > 100 µg/mL. For the same compound, the MIC (Escherichia coli [4]) was > 100 µg/mL, the MBIC50 (Staphylococcus aureus [5]) was 39.5 µM and the inhibition at 100 µg/mL (Staphylococcus aureus [6]) was < 15%. It also gave an MBIC50 (Pseudomonas aeruginosa [7]) of 39.3 µM and an MBIC50 (Escherichia coli [10]) of 39.3 µM.
For Cn1cc(C(=O)c2nc(-c3cn(C)c4ccc(Br)cc34)no2)c2ccccc21, the MIC (Staphylococcus aureus [1]) was > 100 µg/mL, the MIC (Staphylococcus aureus [2]) was > 100 µg/mL and the MIC (Pseudomonas aeruginosa [3]) was > 100 µg/mL. For the same compound, the MIC (Escherichia coli [4]) was > 100 µg/mL, the inhibition at 100 µg/mL (Staphylococcus aureus [11]) was < 15% and the inhibition at 100 µg/mL (Staphylococcus aureus [6]) was < 15%. For the same compound, the MBIC50 (Pseudomonas aeruginosa [7]) was 78.6 µM and the inhibition at 100 µg/mL (Escherichia coli [8]) was < 15%.
With Cn1cc(C(=O)c2nc(-c3cn(C)c4ccccc34)no2)c2ccccc21 the MIC (Staphylococcus aureus [1]) was > 100 µg/mL, the MIC (Staphylococcus aureus [2]) was > 100 µg/mL and the MIC (Pseudomonas aeruginosa [3]) was > 100 µg/mL. The MIC (Escherichia coli [4]) was > 100 µg/mL, the MBIC50 (Staphylococcus aureus [5]) was 14 µM and the MBIC50 (Staphylococcus aureus [12]) was 53.6 µM. The MBIC50 (Pseudomonas aeruginosa [7]) was 36.7 µM and the MBIC50 (Escherichia coli [10]) was 72.1 µM.
In the case of COc1ccc2c(c1)c(C(=O)c1nc(-c3cn(C)c4ccc(Br)cc34)no1)cn2C, the MIC (Staphylococcus aureus [1]) is reported as > 100 µg/mL, the MIC (Staphylococcus aureus [2]) is reported as > 100 µg/mL and the MIC (Pseudomonas aeruginosa [3]) is reported as > 100 µg/mL. The MIC (Escherichia coli [4]) was > 100 µg/mL, the MBIC50 (Staphylococcus aureus [5]) was 41 µM and the inhibition at 100 µg/mL (Staphylococcus aureus [6]) was < 15%. The inhibition at 100 µg/mL (Pseudomonas aeruginosa [13]) was < 15% and the inhibition at 100 µg/mL (Escherichia coli [8]) was < 15%.
For COc1ccc2c(c1)c(C(=O)c1nc(-c3cn(C)c4ccc(F)cc34)no1)cn2C, the MIC (Staphylococcus aureus [1]) was > 100 µg/mL, the MIC (Staphylococcus aureus [2]) was > 100 µg/mL and the MIC (Pseudomonas aeruginosa [3]) was > 100 µg/mL. The MIC (Escherichia coli [4]) was > 100 µg/mL, the MBIC50 (Staphylococcus aureus [5]) was 39.6 µM and the inhibition at 100 µg/mL (Staphylococcus aureus [6]) was < 15%. The MBIC50 (Pseudomonas aeruginosa [7]) was 11.6 µM and the inhibition at 100 µg/mL (Escherichia coli [8]) was < 15%.
